Data published in patent publication US20080248503A1, “Methods of Screening Compounds to Predict Toxicity and Residual Proliferative and Differentiation Capacity of the Lympho-Hematopoietic System” (priority 2005, published 2008).
Where two headings read alike, the source gives them in different places.

Experiments:
[1] = tested on: human PBMNCs cultured under BFU-E-stimulating conditions; test: HALO apoptosis measurement (ADP:ATP ratio) of PBMNCs under BFU-E-stimulating conditions; format: cell-based
Method: Fresh human PBMNCs were cultured under BFU-E-stimulating conditions, together with 3 concentrations of DOX, namely 1 ng/ml (low), 10 ng/ml (medium) and 100 ng/ml (high) as per a typical HALO test procedure. Replicate plates were used so that the effects of DOX could be examined at 2 time points, namely days 3 and 7. At each time point, using the APOGLOW™ detection kit (Cambrex BioScience), ATP releasing reagent and ATP luminescence-monitoring reagent were added and the luminescence read immediately. A second luminescence reading was taken when the nadir ATP value occurred. At this point an ADP converting reagent (ADP-CR) was then added, which converts ADP to ATP and the luminescence measured when the conversion reached a plateau. From these 3 measurements ADP-.ATP ratio was determined. FIG. 15A and 15B show the mean RLU values for each of the DOX concentrations measured at the 2 time points. […]
Cell proliferation and apoptosis can actually be performed in a single read by performing HALO as described above, but then instead of measuring only ATP, adenosine diphosphate (ADP) is also measured, as shown in FIGS. 15 and 16. […]
In the HALO methods that form the basis of the kits of the present invention, ATP is released from the cells using ATP releasing reagent and a 15 min incubation. Thereafter, the ATP luminescence-monitoring reagent is added and the plates read immediately. […]

[2] = tested on: human PBMNCs cultured under BFU-E-stimulating conditions; test: HALO cell proliferation (luminescence) of PBMNCs under BFU-E-stimulating conditions; format: cell-based; settings: days 3 and 7
Method: Fresh human PBMNCs were cultured under BFU-E-stimulating conditions, together with 3 concentrations of DOX, namely 1 ng/ml (low), 10 ng/ml (medium) and 100 ng/ml (high) as per a typical HALO test procedure. Replicate plates were used so that the effects of DOX could be examined at 2 time points, namely days 3 and 7. At each time point, using the APOGLOW™ detection kit (Cambrex BioScience), ATP releasing reagent and ATP luminescence-monitoring reagent were added and the luminescence read immediately. A second luminescence reading was taken when the nadir ATP value occurred. At this point an ADP converting reagent (ADP-CR) was then added, which converts ADP to ATP and the luminescence measured when the conversion reached a plateau. From these 3 measurements ADP-.ATP ratio was determined. FIG. 15A and 15B show the mean RLU values for each of the DOX concentrations measured at the 2 time points. […] On day 3, the increase in ADP:ATP ratio is due to apoptosis of cells with low proliferative capacity.

[3] = tested on: human HPP-SP
Description: (§1) Depending on the type and size of the HALO kit used, all of the culture components required, with the exception of the cells, are included. A typical HALO kit contains the 3 component mixes required to culture cells: • 1. Serum component mix (Mix 1): contains fetal bovine serum (FBS), bovine serum albumin (BSA), transferring and insulin. • 2. Methyl cellulose mix (Mix 2): contains methylcellulose and alph-thioglycerol. • 3. Growth factor mix (Mix 3): contains the type and number of growth factors depending on the cell population being stimulated. • 4. Target cells as prepared in step 1 above: different cell types are available from peripheral blood, bone marrow, or umbilical cord blood (humans) procured from human, non-human primate, dog, rat, or mouse. • Methyl cellulose provided: Methyl cellulose is a viscous, water soluble, semi-solid medium for immobilizing cells. The amount of methyl cellulose provided is for the number of 96-well plates determined by the kit. However, if dispensed carefully, there is sufficient methyl cellulose so that several smaller experiments can be performed using the plate(s) provided. • Dispensing individual component mixes and reagents: A repeater pipette may be used which uses a positive-displacement syringe is used to dispense the methyl cellulose mix. • Dispensing the master mix: Once all the component mixes have been added together, use a repeater pipette to dispense the master mix into individual wells. Using normal syringes with needles may result in inaccurate dispensing and greater variation between replicate wells. • Number of replicates performed: At least 4 replicates per culture point are preferred. Plate configuration: The configuration of the 96-well plate for an experiment is arbitrary. However, the number of replicates and the way in which the reagents required to measure luminescence are added, will determine the plate configuration. For example, if performing 4 or 8 replicates per culture point, we recommend configuring the plate in columns, that is, A1 to DI and EI to HI etc. for quadruplicate cultures and A1 to HI, A2 to 112 etc. for 8-replicate cultures are possible. If performing 6 or 12 replicates, we recommend configuring the plate, in rows, that is, A1-A6 and A7 to A12 for 6 replicates and A1-A12, BL to—813 for 12 replicates are possible. If performing column replicates, addition of the ATP releasing reagent and ATP luminescence-monitoring reagent can be performed using an 8-channel pipette from left to right across the plate. If performing row replicates, an 8- or 12-channel pipette can be used to dispense the reagents from the top to the bottom of the plate. To calculate the quantities of reagents required: • 1. Determine the-number of sample categories required for testing and the number of replicates for each sample. • 2. Multiply the number of sample categories by the number of replicates to obtain the number of wells to be used.
(§2) Before adding the target cells, ensure that a single cell suspension has been prepared. • 6. Mix the contents of the tube vigorously to obtain a homogenous master mix. • 7. To ensure that as little master mix as possible remains on the walls of the tube perform a quick spin in a centrifuge to 500 rpm and then let the centrifuge spin down. […] Dispense 100 μl of the reagent master mix into each of the replicate wells. This can be performed with a syringe and needle, but a repeater pipette is recommended for ease of use, reproducibility and to reduce variation. • 9. Transfer the culture plate to a 37 Celsius, fully humidified incubator with an atmosphere of 5% CO2. If possible, use an incubator gassed with 95% nitrogen in order to reduce the atmospheric oxygen concentration of 5% O2 since this helps increase the plating efficiency. • 10.
(§3) The addition of ATP releasing reagent and ATP luminescence-monitoring reagent is performed is the same manner as that for ATP. • 1.

[4] = tested on: mouse HPP-SP
Description: as §1, §2, §3

[5] = tested on: mouse T-CFC; test: HALO 7-population hemotoxicology, mouse T-CFC; format: cell-based
Method: (§4) To calculate the quantities of reagents required: • 1.
(§5) (See (iv) Adhesive Plate Covering Film above). • 3. […] Repeat this procedure a total of 4 times. Mixing is very important. • 4.
(§6) Luminescence is measured in relative luminescence units or RLU.

[6] = tested on: mouse hematopoietic lineages; format: cell-based
Method: as §4, §5, §6

[7] = tested on: progenitor cell populations; test: HALO 7-population hemotoxicology, progenitor cell populations (hematopoietic lineages); format: cell-based
Method: as §4, §5, §6

[8] = tested on: CFC-GEMM stem cells; test: HALO 7-population hemotoxicology, CFC-GEMM; format: cell-based; settings: species not stated
Method: as §4, §5, §6

[9] = tested on: mouse CFC-GEMM
Description: as §1, §2, §3

[10] = tested on: lymphopoietic cell populations
Description: as §1, §2, §3

[11] = tested on: human CFC-GEMM
Description: as §1, §2, §3

[12] = tested on: human hematopoietic lineages; test: HALO 7-population hemotoxicology, human hematopoietic lineages; format: cell-based
Method: as §4, §5, §6

[13] = tested on: HPP-SP stem cells; test: HALO 7-population hemotoxicology, HPP-SP; format: cell-based; settings: species not stated
Method: as §4, §5, §6

[14] = tested on: BFU-E; test: HALO 7-population hemotoxicology, BFU-E (erythropoietic lineage); format: cell-based
Method: as §4, §5, §6

[15] = tested on: primitive and mature stem cell populations; test: HALO 7-population hemotoxicology, primitive and mature stem cell populations; format: cell-based; settings: FIG. 17A
Method: as §4, §5, §6

[16] = tested on: mouse B-CFC; test: HALO 7-population hemotoxicology, mouse B-CFC; format: cell-based
Method: as §4, §5, §6

## COc1cccc2c1C(=O)c1c(O)c3c(c(O)c1C2=O)C[C@@](O)(C(=O)CO)C[C@@H]3O[C@H]1C[C@H](N)[C@H](O)[C@H](C)O1 [DOX, doxorubicin]
[1]; day 3
  effect on ADP:ATP ratio: increase
[1]; day 7
  apoptosis of BFU-E and immediate progeny: induced into apoptosis
[2]; 1 ng/ml (low)
  effect on mean RLU (luminescence): little or no effect
[2]; 10 ng/ml (medium)
  effect on mean RLU (luminescence): decrease the luminescence
[2]; 100 ng/ml (high)
  effect on mean RLU (luminescence): decrease the luminescence

## CN(C)C=O [N,N-dimethylformamide]
[3]; human
  effect on human HPP-SP: effected
[4]; mouse
  effect on mouse HPP-SP: stimulated
[5]
  effect on mouse T-CFC: stimulation
[6]
  effect on mouse hematopoietic lineages: effected

## c1ccccc1 [benzene]
[7]
  effect on progenitor cells / hematopoietic lineages: hematopoietic suppression
[8]
  effect on CFC-GEMM stem cells: acts at the CFC-GEMM level

## [Cl][Cd][Cl] [cadmium chloride]
[3]; human
  effect on human HPP-SP: decrease
[9]; mouse
  effect on mouse CFC-GEMM: no effect
[10]; T-CFC & B-CFC
  effect on lymphopoietic cells / lymphopoietic lineages: decrease
[11]; human
  effect on human CFC-GEMM: decrease
[4]; mouse
  effect on mouse HPP-SP: decrease
[12]
  effect on human hematopoietic lineages: decrease
[6]
  effect on mouse hematopoietic lineages: decrease

## O=C(N[C@H](CO)[C@H](O)c1ccc([N+](=O)[O-])cc1)C(Cl)Cl [chloramphenicol]
[10]; T-CFC & B-CFC
  effect on lymphopoietic cells / lymphopoietic lineages: stimulation
[13]
  effect on HPP-SP stem cells: Stimulation
[8]
  effect on CFC-GEMM stem cells: no effect
[14]; erythropoietic lineage
  effect on erythroid elements: decrease
[14]; species not stated
  effect on BFU-E: specifically inhibited

## CCn1cc(C(=O)O)c(=O)c2ccc(C)nc21 [naladixic acid]
[10]; T-CFC & B-CFC
  effect on lymphopoietic cells / lymphopoietic lineages: No demonstrable effect
[7]
  effect on progenitor cells / hematopoietic lineages: No demonstrable effect
[15]
  effect on stem cells: No demonstrable effect

## Nc1ccc(N)cc1 [p-phenelenediamine]
[4]; mouse
  effect on mouse HPP-SP: decrease
[5]
  effect on mouse T-CFC: decrease
[16]
  effect on mouse B-CFC: decrease

## [Na+].[Na+].[O]=[Cr](=[O])([O-])[O][Cr](=[O])(=[O])[O-] [sodium dichromate]
[3]
  effect on human HPP-SP: inhibited
[9]
  effect on mouse CFC-GEMM: inhibited
[10]
  effect on lymphopoietic cells / lymphopoietic lineages: inhibition
[11]
  effect on human CFC-GEMM: inhibited
[4]
  effect on mouse HPP-SP: inhibited
[7]
  effect on progenitor cells / hematopoietic lineages: inhibition
